Experimental data as given in patent US4172145A, “Benzo(b)furylacetic acid derivatives to reduce inflammation” (priority 1975, dated 1979).
Where two headings read alike, the source gives them in different places.

How the values were obtained:
[1] = system: carrageenin-induced edema on the hind paw of rats; test: Anti-edema effect on carrageenin-induced edema on the hind paw of rats (Carrageenin Edema Method); assay type: in vivo, rat (male Wistar strain); conditions: rat, oral, 3 hours after carrageenin; for inhibition in vivo at 75 mg/kg / inhibition in vivo at 150 mg/kg / inhibition in vivo at 300 mg/kg: read-out: Anti-edema Effect, Suppression Ratio
Description: The anti-edema effect was determined according to the method of Yamazaki et al [Yamazaki, H., et al; Folia Pharmacologica Japonica, 63, 302 (1967)].
In this test, a group consisting of five rats (male Wistar strain: weight 100-120 g) was used for the test and control groups. The compounds shown in Table 2 were administered orally to the rats of the test group. After one hour, 0.1 ml of a 1% carrageenin solution (phlogistic agent) was further administered to each rat by subcutaneous injection in one hind paw. To each rat of the control group, 0.1 ml of a 1% carrageenin solution was also administered in a similar manner to that for test rats. 1, 3 and 5 hours after administration of the phlogistic agent, the swelling ratio was calculated by means of the following equation: […]
Test group [formula] in which b: swelling ratio
B: volume of a hind paw without administration of phlogistic agent
B': volume of a hind paw administered with phlogistic agent
Control group [formula] in which a: swelling ratio
A: volume of a hind paw without administration of phlogistic agent
A': volume of a hind paw administered with phlogistic agent
The anti-edema effect was expressed as the suppression ratio of the edema in comparison with the control group to which the test compound had not been administered. The suppression ratio of the edema was determined 3 hours after administration of the phlogistic agent and was calculated by means of the following equation: [formula] in which a and b are as hereinbefore defined.

in vivo [2] = conditions: oral, observed one week, Litchfield and Wilcoxon
Description: In this test, five groups, each consisting of 5 mice (male dd strain; weight: 19-21 g) and 5 rats (male Wistar strain; weight: 100-120 g) were used. […] The LD50 was calculated according to the method of Litchfield and Wilcoxon [Journal of Pharmacol. and Exper. Therap.

[3] = system: pain threshold of inflamed and not inflamed paws of rats; test: Analgesic activity in rats (Randall-Selitto Method); assay type: in vivo, rat (male Wister strain); conditions: Rattus norvegicus, po, P.O. 150 mg/kg, read-out: Analgesic Coefficient
Description: A group consisting of 6-7 rats (male Wister strain; weight: 100-120 g) was used for the test and control groups in this test. Each rat of both groups was treated with 0.1 ml of a 1% carrageenin solution as phlogistic agent by subcutaneous injection in one hind paw. 3 hours after the administration, pressure was applied to the treated paw of each rat by means of a pressing device (manufactured by Ugobasile S. A., Italy). The threshold of pain induced by press was measured with reference to the shriek and struggle according to the method of Randall and Selitto [Randall, L. O. and Selitto, J. J.; Arch, Int. Pharmocodyn., 111, 409 (1957)]. From each group 5 rats having a good response reaction, i.e. the pain threshold was not more than 70 g, were respectively selected. […] 1, 2 and 3 hours after administration, pressure was again applied to both the inflamed and not inflamed paws of the test rats and the pain threshold was measured. On the other hand, without the administration of the active compound, the pressure was applied to both the inflamed and not inflamed paws of the selected 5 rats of the control group and the pain threshold was measured. The inflamed paws of the test and control groups were compared with each other. Also the not inflamed paws of the both groups were compared with each other.
The analgesic coefficient was calculated by means of the following equation, and the larger analgesic coefficient the better analgesic activity. [formula] in which X: analgesic coefficient (%)
P1 : threshold (g) of the test rats administered with active compounds
P2 : threshold (g) of the control rats without administration of active compound

[4] = system: acetic acid-induced writhing reactions in mice; test: Analgesic activity in mice (AcOH Writhing Method); assay type: in vivo, mouse (male dd-strain); conditions: mouse, oral; for inhibition in vivo at 150 mg/kg / inhibition in vivo at 300 mg/kg: 1 h before acetic acid, read-out: Analgesic Effect (AcOH Writhing Method), Suppression Ratio; for ED50: read-out: Analgesic Effect (AcOH Writhing Method), ED50
Description: In this test, three groups, each consisting of 10 mice (male dd-strain; weight: 19-21 g) were used. The compounds shown in Table 3 were administered orally to the test mice. One hour after the administration, the mice were treated with 0.1 ml/10 g of 0.7% acetic acid solution in physiological saline by intraperitoneal injection according to the method of Koster et al [Koster, R., et al; Fed. Proc., 18, 412 (1959)]. Ten minutes after the treatment, the number of writhing reactions occurring in the mice was counted.

in vivo [5] = conditions: rat, po
Description: A test group consisting of 10-15 rats (male Wistar strain; weight: 180-220 g) was used in this test. Each rat was fasted for 20 hours, but water was allowed ad libitum. The compounds shown in Table 5 were administered orally. After a 20-hour interval during which the rats were not fed but were allowed water, each rat was administered under ether anesthesia with 0.5 ml per 100 g body weight of a 5% solution of pontamine sky blue 6BX in saline (pH 7.2--adjusted with 0.5 N HCl) by intravenous injection. 15 minutes after administration each rat was killed. The stomach was removed and maintained in a 1% formalin solution. After about 2 hours, the stomach was opened along the greater curvature and the length of lesions (dark blue areas against pale blue background) in the glandular portion was measured under a dissecting microscope (10×) provided with a square grid. The sum of the lengths (mm) of lesions was used as ulcer index.

[6] = Eur. J. Med. Chem. 1975-10, N. 2, p. 182-186; cited from earlier work
[7] = Eur. J. Med. Chem. 1975-10, N. 2, p. 182-186; cited from earlier work; remark: listed apart in the source
[8] = mouse, read-out: Acute Toxicity (P.O.), LD50, Mouse
[9] = rat, read-out: Acute Toxicity (P.O.), LD50, Rat

Structure (SMILES) | inhibition in vivo at 75 mg/kg [1] | inhibition in vivo at 150 mg/kg [1] | inhibition in vivo at 300 mg/kg [1] | ED50 [1] | LD50 at 168 h (in vivo [2]; [8]) | LD50 at 168 h (in vivo [2]; [9]) | change in vivo at 150 mg/kg ([3]; 1 h, inflamed paw, 1 hr.) | change in vivo at 150 mg/kg ([3]; 1 h, not inflamed paw, 1 hr.) | change in vivo at 150 mg/kg ([3]; 2 h, inflamed paw, 2 hr.) | change in vivo at 150 mg/kg ([3]; 2 h, not inflamed paw, 2 hr.) | change in vivo at 150 mg/kg ([3]; 3 h, inflamed paw, 3 hr.) | change in vivo at 150 mg/kg ([3]; 3 h, not inflamed paw, 3 hr.) | inhibition in vivo at 150 mg/kg [4] | inhibition in vivo at 300 mg/kg [4] | ED50 [4] | TD50 at 20 h (in vivo [5]) | anti-inflammatory activity versus phenylbutazone [6] | toxicity versus phenylbutazone [7]
Cc1ccc2oc(CC(=O)O)c(C)c2c1 [Test Compound 4, 3,5-dimethyl-2-benzo(b)furylacetic acid] | 43.8% | 56.2% | 70.9% | 100 mg/kg | 1310 mg/kg | > 1000 mg/kg | 35.4% | 0% | 18.8% | 0% | 7.1% | 0% | 11.2% | 41.4% | 350 mg/kg | > 300 mg/kg |  | 
Cc1c(CC(=O)O)oc2ccc(F)cc12 [Test Compound 5, 5-fluoro-3-methyl-2-benzo(b)furylacetic acid] | 37.9% | 60% | 71.9% | 105 mg/kg | 1750 mg/kg | > 1000 mg/kg | 38.6% | 0% | 23.5% | 0% | 19.3% | 0% | 26% | 41.4% | 380 mg/kg | > 300 mg/kg |  | 
O=C(O)Cc1cc2cc(Cl)ccc2o1 [chloro-5 benzoful-2-acetate] |  |  |  |  |  |  |  |  |  |  |  |  |  |  |  |  | lower anti-inflammatory activity | minor toxicity than phenylbutazone
O=C(O)c1cc2cc(Cl)ccc2o1 [chloro-5-benzo(b)furyl-2 carboxylic acid] |  |  |  |  |  |  |  |  |  |  |  |  |  |  |  |  | lower anti-inflammatory activity | minor toxicity than phenylbutazone
COc1ccc2oc(CC(=O)O)cc2c1 [methoxy-5 benzo(b)furyl-2-acetate] |  |  |  |  |  |  |  |  |  |  |  |  |  |  |  |  | lower anti-inflammatory activity | minor toxicity than phenylbutazone
